Assay results: patent US7345079B2, “Treatment of disorder related to low cyclic GMP levels” (Yung Shin Pharmaceuticals Industrial Co., Ltd, priority 2001, dated 2008)

What was measured:
[1] = molecular target: T1, PDE 5 (Homo sapiens, UniProt O76074); assay: Inhibition of PDE 5 (human platelet lysate, cGMP hydrolysis); format: biochemical; details: PDE 5 from washed human platelet supernatant; 10 μM cGMP; 37° C. 30 minutes; read-out: IC50 in inhibiting PDE 5
T1 construct: Washed human platelets were prepared by the method described in Teng et al; from tissue; host or cells: human platelets (sonicated lysate, 39,000×g supernatant)
Experimental: A suitable in vitro assay can be used to preliminarily evaluate the effect of a fused pyrazolyl compound on inhibiting a PDE, which hydrolyzes cGMP. For example, platelets are washed, suspended in a buffer, and disrupted by sonication to obtain a solution containing a PDE. A compound to be tested and cGMP (a substrate for the PDE) are added to the solution. Ophiophagus hannah snake venom is subsequently added to remove the phosphate in 5′-GMP (converted from cGMP by the PDE) to form uncharged guanosine. An ion-exchange resin is used to remove the remaining cGMP. The cGMP-free solution is then centrifuged, and an aliquot of the supernatant is taken for quantification of the uncharged guanosine in a liquid scintillation counter. Activity of the PDE is evaluated based on the amount of the uncharged guanosine. In vivo screening can be performed by following procedures well known in the art.
Washed human platelets were prepared by the method described in Teng et al. Biochem. Biophys. Acta. 1989, 990, 315-320, suspended in 50 mM pH 7.4 Tris-HCl buffer (containing 5 mM MgCl2), and then disrupted by sonication at 4° C. […] The cGMP-free solution thus obtained was then centrifuged, and 0.5 mL of the supernatant was taken for quantification of uncharged guanosine in a liquid scintillation counter.

Compound | IC50 [1] [µM] | melting point [°C]
COc1ccc2c(-c3ccc(CO)o3)nn(Cc3ccccc3)c2c1 [Compound 1, 1-benzyl-3-(5′-hydroxymethyl-2′-furyl)-6-methoxyindazole] | 3.5 | 109 to 110
OCc1ccc(-c2nn(Cc3ccccc3)c3cc4c(cc23)OCO4)o1 [Compound 4, 1-benzyl-3-(5′-hydroxymethyl-2′-furyl)-5,6-methylenedioxoindazole] | – | 122 to 123
